Experiment: Storage stability of amrubicin hydrochloride compositions: rates of by-product generation of degradation products
Assay type: physicochemical
Description: Various compositions of amrubicin hydrochloride composed of about 91 to about 98% by weight of amrubicin hydrochloride and about 2 to about 9% by weight of water were prepared by exposing dried amrubicin hydrochloride to air whose relative humidity was adjusted (0 to 95%).
The thus-prepared amrubicin hydrochloride compositions having water contents of about 2 to about 9% by weight were stored at 30° C. and investigated rates of by-product generation of the degradation products, i.e., the desaccharification and deamination products.
The relative humidity was adjusted by reference to “Kobunshi Jikken-gaku Koza (Polymer Experiment Course) 5, Kobunshi no Bussei (Physical Properties of Polymers), 100-107 pages (Kyoritsu Shuppan Kabushiki Kaisha)”.

[1] = according to the decrease in water content
[2] = according to the increase in water content

Compound: CC(=O)[C@]1(N)Cc2c(O)c3c(c(O)c2[C@@H](O[C@H]2C[C@H](O)[C@H](O)CO2)C1)C(=O)c1ccccc1C3=O.Cl [amrubicin hydrochloride, (7S,9S)-9-Acetyl-9-amino-7-[(2-deoxy-β-D-erythro-pentapyranosyl)oxy]-7,8,9,10-tetrahydro-6,11-dihydroxy-5,12-nephthacenedione hydrochloride]
- by-product generation rate of the deamination product [1]: decreased
- by-product generation rate of the desaccharification product [1]: increased
- by-product generation rate of the deamination product [2]: increased
- by-product generation rate of the desaccharification product [2]: decreased
- by-product generation of both desaccharification and deamination products (stored at 30° C. under an atmosphere at 5 to 90% relative humidity (FIG. 1)): can be suppressed
- by-product generation of both desaccharification and deamination products (stored at 30° C., water content in composition controlled at 3 to 8% by weight (FIG. 2)): can be suppressed

— patent publication US8030283B2, “Stabilization of amrubicin hydrochloride” (Dainippon Sumitomo Pharma Co., Ltd., priority 2001, dated 2011)
